Patent publication US20230183193A1, “4-DIFLUOROMETHYL BENZOYL AMIDES WITH HERBICIDAL ACTION” (BAYER CROPSCIENCE AKTIENGESELLSCHAFT, priority 2017, published 2023)

What was measured:
Assay type in all cases: in vivo
LOLMU = assay: Pre-emergence herbicidal action, LOLMU; settings: Table L
Viola tricolor [1] = assay: Pre-emergence herbicidal action, VIOTR
Outline: (§1)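 Percent herbicidal activity rated by eye 3 weeks after pre-emergence soil-surface application, compared with untreated pots. Seeds sat under sandy loam; sprays carried 0.2% wetting agent.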

Amaranthus retroflexus [2] = assay: Pre-emergence herbicidal action, AMARE; settings: for Herbicidal efficacy against AMARE: comparison with WO 2011035874, Table H
Outline: as §1

Abutilon theophrasti [3] = assay: Post-emergence herbicidal action, ABUTH; settings: 80 g/ha
Outline: (§2)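 Greenhouse-grown weeds in sandy loam, treated at the one-leaf stage 2 to 3 weeks after sowing with WP or EC formulations sprayed as aqueous suspension/emulsion at 600 to […] water plus 0.2% wetting agent. Visual scoring after about 3 weeks versus untreated controls, 0% (like control) to 100% (plants dead).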

Matricaria inodora [4] = assay: Pre-emergence herbicidal action, MATIN; settings: dosage 320 g/ha, scored visually after 3 weeks vs untreated controls
Outline: as §1

Amaranthus retroflexus [5] = assay: Post-emergence herbicidal action, AMARE; settings: 80 g/ha
Outline: as §2

Avena fatua [6] = assay: Post-emergence herbicidal action, AVEFA; settings: dosage 20 g/ha, Table M
Outline: as §2

Stellaria media [7] = assay: Post-emergence herbicidal action, STEME; settings: 80 g/ha
Outline: as §2

Setaria viridis [8] = assay: Post-emergence herbicidal action, SETVI
Outline: as §2

Avena fatua [9] = assay: Pre-emergence herbicidal action, AVEFA
Outline: as §1

Alopecurus myosuroides [10] = assay: Pre-emergence herbicidal action, ALOMY
Outline: as §1

Polygonum convolvulus = assay: Pre-emergence herbicidal action, POLCO
From the text: (§3) 1. Pre-Emergence Herbicidal Action Against Harmful Plants Seeds of monocotyledonous and dicotyledonous weed plants and crop plants are laid out in sandy loam soil in wood-fiber pots and covered with soil. The compounds of the invention, formulated in the form of wettable powders (WP) or as emulsion concentrates (EC), are then applied to the surface of the covering soil in the form of an aqueous suspension or emulsion at a water application rate equating to […], with addition of 0.2% wetting agent. After the treatment, the pots are placed in a greenhouse and kept under good growth conditions for the trial plants. The damage to the test plants is scored visually after a test period of 3 weeks by comparison with untreated controls (herbicidal activity in percent (%): 100% activity=the plants have died, 0% activity=like control plants).
(§4) For comparison, the herbicidal activity of numerous compounds according to the invention was tested with the structurally closest compounds known from the documents WO 2011/035874, WO 2012/028579 and WO 2012/126932, by the pre- and post-emergence method.

Cyperus serotinus = assay: Pre-emergence herbicidal action, CYPES
Outline: as §1

Veronica persica [11] = assay: Post-emergence herbicidal action, VERPE
Protocol: (§5) Seeds of monocotyledonous and dicotyledonous weed and crop plants are laid out in sandy loam soil in wood-fiber pots, covered with soil and cultivated in a greenhouse under good growth conditions. 2 to 3 weeks after sowing, the test plants are treated at the one-leaf stage. The compounds of the invention, formulated in the form of wettable powders (WP) or as emulsion concentrates (EC), are then sprayed onto the green parts of the plants in the form of an aqueous suspension or emulsion at a water application rate equating to […], with addition of 0.2% wetting agent. After the test plants have been left to stand in the greenhouse under optimal growth conditions for about 3 weeks, the action of the preparations is assessed visually in comparison to untreated controls (herbicidal action in percent (%): 100% activity=the plants have died, 0% activity=like control plants). […] At the same time, inventive compounds leave Gramineae crops such as barley, wheat, rye, millet/sorghum, corn or rice virtually undamaged when applied post-emergence, even at high active compound dosages. In addition, some substances are also harmless to dicotyledonous crops such as soya, cotton, oilseed rape, sugar beet or potatoes. Some of the compounds according to the invention have high selectivity and are therefore suitable for controlling unwanted vegetation in agricultural crops by the post-emergence method. The data of Tables C and D below illustrate, in an exemplary manner, the […] herbicidal action of the compounds according to the invention, the herbicidal activity being stated in percent.
as §4

Pharbitis purpureum = assay: Post-emergence herbicidal action, PHBPU; settings: 80 g/ha
Outline: as §2

Alopecurus myosuroides [12] = assay: Post-emergence herbicidal action, ALOMY
Outline: as §2

Stellaria media [13] = assay: Pre-emergence herbicidal action, STEME; settings: for Herbicidal efficacy against STEME: comparison with WO 2011035874, Table H
Outline: as §1

Viola tricolor [14] = assay: Post-emergence herbicidal action, VIOTR
Outline: as §2

Setaria viridis [15] = assay: Pre-emergence herbicidal action, SETVI
Outline: as §1

Matricaria inodora [16] = assay: Post-emergence herbicidal action, MATIN
Protocol: as §5, §4

ECHCG [17] = assay: Post-emergence herbicidal action, ECHCG; settings: 80 g/ha, Table C
Outline: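 Weed and crop plants grown in sandy loam in the greenhouse, treated at the one-leaf stage 2–3 weeks after sowing. Damage scored visually after about 3 weeks vs untreated controls (0% = control, 100% = dead).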

Abutilon theophrasti [18] = assay: Pre-emergence herbicidal action, ABUTH; settings: comparison with WO 2011035874, Table G
Outline: as §1

Veronica persica [19] = assay: Pre-emergence herbicidal action, VERPE; settings: comparison with WO 2011035874, Table H
From the text: as §3, §4

ECHCG [20] = assay: Pre-emergence herbicidal action, ECHCG; settings: comparison with WO 2011035874, Table G
From the text: as §3

[21] = dosage 320 g/ha, scored visually after 3 weeks vs untreated controls
[22] = 80 g/ha, comparison with WO 2011035874, Table H
[23] = comparison with WO 2011035874, Table E
[24] = 80 g/ha, comparison with WO 2011035874, Table G
[25] = 80 g/ha, comparison with WO 2011035874, Table E
[26] = 320 g/ha, comparison with WO 2011035874, Table H
[27] = comparison with WO2011035874, Table F
[28] = 320 g/ha, comparison with WO 2011035874, Table G
[29] = 80 g/ha, comparison with WO2011035874, Table F

CSc1c(C(F)F)ccc(C(=O)Nc2nnc(C)o2)c1C [Example 7-1]
Herbicidal efficacy against LOLMU (LOLMU; dosage 80 g/ha): 0 | Herbicidal efficacy against LOLMU (LOLMU; dosage 320 g/ha): 30 | Herbicidal efficacy against VIOTR (Viola tricolor [1]; dosage 80 g/ha, Table L): 90 | Herbicidal efficacy against VIOTR (Viola tricolor [1]; dosage 320 g/ha, Table L): 100 | herbicidal activity VIOTR (Viola tricolor [1]; [21]): 100% | herbicidal activity AMARE (Amaranthus retroflexus [2]; [21]): 100% | herbicidal activity ABUTH (Abutilon theophrasti [3]; Table D): 100% | herbicidal activity MATIN (Matricaria inodora [4]): 80% | herbicidal activity AMARE (Amaranthus retroflexus [5]; Table D): 100% | Herbicidal efficacy against AVEFA (Avena fatua [6]): 40 | Herbicidal activity STEME (Stellaria media [7]; Table D): 90% | herbicidal activity SETVI (Setaria viridis [8]; 80 g/ha, Table C): 100% | Herbicidal efficacy against SETVI (Setaria viridis [8]; dosage 20 g/ha, Table M): 100 | Herbicidal efficacy against AVEFA (Avena fatua [9]; dosage 80 g/ha, Table L): 20 | Herbicidal efficacy against AVEFA (Avena fatua [9]; dosage 320 g/ha, Table L): 70 | Herbicidal efficacy against ALOMY (Alopecurus myosuroides [10]; dosage 80 g/ha, Table L): 60 | Herbicidal efficacy against ALOMY (Alopecurus myosuroides [10]; dosage 320 g/ha, Table L): 70 | Herbicidal efficacy against POLCO (Polygonum convolvulus; dosage 80 g/ha, Table L): 30 | Herbicidal efficacy against POLCO (Polygonum convolvulus; dosage 320 g/ha, Table L): 40 | Herbicidal efficacy against CYPES (Cyperus serotinus; dosage 80 g/ha, Table L): 60 | Herbicidal efficacy against CYPES (Cyperus serotinus; dosage 320 g/ha, Table L): 70 | Herbicidal efficacy against VERPE (Veronica persica [11]; dosage 20 g/ha, Table M): 90 | Herbicidal activity PHBPU (Pharbitis purpureum; Table D): 90% | herbicidal activity ALOMY (Alopecurus myosuroides [12]; 80 g/ha, Table C): 90% | Herbicidal efficacy against ALOMY (Alopecurus myosuroides [12]; dosage 20 g/ha, Table M): 70 | Herbicidal activity STEME (Stellaria media [13]; [21]): 80% | herbicidal activity VIOTR (Viola tricolor [14]; 80 g/ha, Table D): 100% | Herbicidal efficacy against VIOTR (Viola tricolor [14]; dosage 20 g/ha, Table M): 100 | Herbicidal efficacy against SETVI (Setaria viridis [15]; dosage 80 g/ha, Table L): 70 | Herbicidal efficacy against SETVI (Setaria viridis [15]; dosage 320 g/ha, Table L): 100 | Herbicidal efficacy against MATIN (Matricaria inodora [16]; dosage 20 g/ha, Table M): 40 | Herbicidal activity ECHCG (ECHCG [17]): 100%

Cn1nnnc1NC(=O)c1ccc(C(F)F)c(S(=O)(=O)CC2CC2)c1I [Example 1-81]
Herbicidal efficacy against VIOTR (Viola tricolor [1]; [22]): 90% | Herbicidal efficacy against AMARE (Amaranthus retroflexus [2]; 80 g/ha): 60% | Herbicidal efficacy against ABUTH (Abutilon theophrasti [18]; 80 g/ha): 20% | Herbicidal efficacy against ABUTH (Abutilon theophrasti [3]; [23]): 30% | Herbicidal efficacy against AMARE (Amaranthus retroflexus [5]; [23]): 60% | Herbicidal efficacy against VERPE (Veronica persica [19]; 80 g/ha): 70% | Herbicidal efficacy against STEME (Stellaria media [7]; [23]): 0% | Herbicidal efficacy against AVEFA (Avena fatua [9]; [24]): 40% | Herbicidal efficacy against ALOMY (Alopecurus myosuroides [10]; [24]): 0% | Herbicidal efficacy against POLCO (Polygonum convolvulus; [22]): 10% | Herbicidal efficacy against CYPES (Cyperus serotinus; [24]): 0% | Herbicidal efficacy against VERPE (Veronica persica [11]; [25]): 30% | Herbicidal efficacy against PHBPU (Pharbitis purpureum; [23]): 10% | Herbicidal efficacy against ECHCG (ECHCG [20]; 80 g/ha): 10% | Herbicidal efficacy against STEME (Stellaria media [13]; 80 g/ha): 50% | Herbicidal efficacy against VIOTR (Viola tricolor [14]; [25]): 0% | Herbicidal efficacy against SETVI (Setaria viridis [15]; [24]): 10% | Herbicidal efficacy against MATIN (Matricaria inodora [16]; [25]): 10%

CC[S+]([O-])c1c(C(F)F)ccc(C(=O)Nc2nnnn2C)c1I (centres unmarked) [Example 1-77]
Herbicidal efficacy against VIOTR (Viola tricolor [1]; [26]): 60% | Herbicidal efficacy against AMARE (Amaranthus retroflexus [2]; 320 g/ha): 100% | Herbicidal efficacy against ABUTH (Abutilon theophrasti [18]; 320 g/ha): 100% | Herbicidal efficacy against VERPE (Veronica persica [19]; 320 g/ha): 90% | Herbicidal efficacy against STEME (Stellaria media [7]; [27]): 80% | Herbicidal efficacy against AVEFA (Avena fatua [9]; [28]): 0% | Herbicidal efficacy against ALOMY (Alopecurus myosuroides [10]; [28]): 10% | Herbicidal efficacy against POLCO (Polygonum convolvulus; [26]): 30% | Herbicidal efficacy against CYPES (Cyperus serotinus; [28]): 30% | Herbicidal efficacy against PHBPU (Pharbitis purpureum; [27]): 40% | Herbicidal efficacy against ECHCG (ECHCG [20]; 320 g/ha): 70% | Herbicidal efficacy against STEME (Stellaria media [13]; 320 g/ha): 80% | Herbicidal efficacy against VIOTR (Viola tricolor [14]; [29]): 60% | Herbicidal efficacy against SETVI (Setaria viridis [15]; [28]): 20% | Herbicidal efficacy against MATIN (Matricaria inodora [16]; [29]): 0%
